Reference: patent publication US20120003270A1, “6-SUBSTITUTED ISOFLAVONOID COMPOUNDS AND USES THEREOF” (priority 2008, published 2012)

Legend:
RAW 264.7 = experiment: Toxicity in RAW 264.7; format: cell-based, mouse
[1] = Interaction with Cu(II) (UV/Vis absorption spectra); format: physicochemical; conditions: 25 μM compound + 25 μM CuSO4, 1:1 molar ratio, pH 7.2
Experimental: The non-specific binding of compound (1) to Cu^++ was also examined in duplicate on different days. A stock solution of test compounds was prepared in DMSO at a concentration of 5 mM. The UV/Vis absorption spectra of was then determined between 200 and 800 nm after dilution of test compounds to 25 μM in phosphate buffer (10 mM, pH 7.2, chelex treated). Interactions of the compounds with Cu(II) were determined by scanning a second overlaying absorption spectrum over 200 to 800 nm, in which 25 μM CuSO4 solution was added to a fresh 25 μM solution of test compounds and mixed for 20 seconds.

aortic ring = experiment: Rat aortic ring assay (contraction to noradrenaline); conditions: 1 μg/ml, p=0.045, read-out: Inhibition of the contractile response (logEC50) to noradrenaline compared with vehicle alone
Experimental: Male Sprague-Dawley rats (250±50 g) were euthanased with 80% CO2 and 20% O2. The thoracic aorta was excised and quickly mounted in organ-baths as described (Chin-Dusting et al. 2001). Full concentration-contractile curves were obtained to noradrenaline (0.1 nM-10 mM) with and without test compounds delivered at a concentration of 1 μg/ml. Experiments were repeated in n=5 different rings from 5 different animals. Only one compound at any one concentration was tested on any one ring from any one animal. Sigmoidal dose response curves were fitted for the data and the logEC50 calculated (Prism 4, GraphPad Software). The difference in these values between the presence and absence of test compound was calculated using a two-tailed paired t test. The effects of β-oestrodiol and vehicle alone were examined as a positive and negative control respectively.

## O=C(O)C1CCCN1Cc1cc2c(cc1O)OCC(c1ccc(O)cc1)=C2 (centres unmarked) [Compound (3)]
other
  melting point: 240 °C (dec.)

## CN(C)Cc1cc2c(cc1O)OCC(c1ccc(O)cc1)=C2 [Compound (1)]
RAW 264.7
  Effect on the viability of RAW 264.7 cells: little effect on the viability
RAW 264.7; Mus musculus, RAW264.7
  IC50: 53.9 ± 1.2 µM
[1]
  Interaction with Cu^2+: did not interact with Cu^2+
Aortic ring
  inhibition at 1 µg/mL: 23%
